{"source": "patent US20100184703A1", "about": "“USE OF PEPTIDE DERIVATIVES FOR TREATING PATHOLOGIES RESULTING FROM ISCHEMIA” (CHIESI FARMACEUTICI S.p.A., priority 2007, published 2010)", "key": {"caspase-2 [1]": {"biological_target": "T1, caspase-2 (Rattus norvegicus, UniProt P55215)", "T1 construct": "Each fragment of tissue was rapidly frozen in liquid nitrogen and kept at −80° C; from tissue; host or cells: rat myocardium (left ventricle, right ventricle, septum, apex) extracts", "T1 sequence (P55215 170-325 limits assumed)": "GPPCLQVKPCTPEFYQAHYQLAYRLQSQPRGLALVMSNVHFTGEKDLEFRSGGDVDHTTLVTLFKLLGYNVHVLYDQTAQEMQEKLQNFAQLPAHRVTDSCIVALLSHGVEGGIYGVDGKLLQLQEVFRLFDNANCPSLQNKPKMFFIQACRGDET", "T1 sequence (P55215 348-452 limits assumed)": "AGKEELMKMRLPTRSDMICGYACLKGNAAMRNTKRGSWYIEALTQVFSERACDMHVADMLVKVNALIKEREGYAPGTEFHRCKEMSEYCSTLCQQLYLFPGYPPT", "assay": "Dosage of caspase-2 activity in myocardial tissue, chronic ischemia (PMI) model", "format": "in vivo", "details": "PMI 72 h; for caspase-2 activity: pre-treated rats, left ventricle (VG) and septum, 1 mg/kg"}, "caspase-2 [2]": {"biological_target": "T1, caspase-2", "assay": "Dosage of caspase-2 activity in myocardial tissue, reperfusion ischemia (IR) model", "format": "in vivo", "details": "administered 15 min before the reperfusion, VGZI and septum"}, "[3]": {"tested_on": "ischemiated and re-perfused hearts", "assay": "Morphology of the hearts after ischemia-reperfusion", "format": "in vivo, rat", "details": "30 min occlusion, IP injection 15 min before re-perfusion, 10 days after infarct", "experimental": "In the case of reperfusion ischemia model (IR model), the silk wire was untied after 30 min of occlusion. The artery was then cleared and the myocardial territory reperfused. The control animals (sham operated) were submitted to the same surgery protocol as the above animals, but the silk wire was passed under the coronary without making any ligature.\nThe animals were sacrificed by a lethal injection of pentobarbital. The heart was excised and perfused 2-3 min. using Langendorf reverse route and a calcium-free washing solution (NaCl 117, KCl 5.7, NaHCO3 4.4, KH2PO4 1.5, MgCl2 1.7, HEPES 21, glucose 11, taurine 20, pH 7.2 adjusted to NaOH). The solution was then replaced by a PBS solution at 4% of PFA (about 10 ml). The heart was immersed in this fixation solution for about 1 h, and then washed with PBS 4%.\nThe animals were submitted to an occlusion of the left coronary artery during 30 min.\n15 min before the re-perfusion, the animals were treated by an IP injection of D1 or DMSO. The animals were sacrificed after 72 h, 10 days after re-perfusion for an histological analysis of the hearts. The morphology of the hearts (PFA fixed 4%) 10 days after infarct is illustrated by FIG. 7."}, "[4]": {"tested_on": "ventricular cardiomyocytes", "assay": "Patch-clamp electrophysiological recordings on ventricular cardiomyocytes of PMI rats", "format": "in vivo, rat", "details": "for density of transitory current coming out (Ito): cardiomyocytes of the sub-epicardic layer; for membrane capacity (cellular size; hypertrophy induced by myocardial ischemia): cardiomyocytes after 4-5 months", "experimental": "The isolated ventricular cardiomyocytes were obtained by enzymatic dissociation with collagenase by Langendorf reversed perfusion (Fauconnier, 2005). The rats were heparinized (0.2 ml, GIBCO® 1000 Ul/ml) and anaesthetized by intraperitoneal injection of pentobarbital ([…], Sanofi Santé, France). The heart was rapidly excised and a retrograde perfusion through the aorta, was performed for 5 min with a calcium-free washing solution (in mM: NaCl 117, KCl 5.7, NaHCO3 4.4, KH2PO4 1.5, MgCl2 1.7, HEPES 21, glucose 11, taurine 20, pH 7.2 (adjusted with NaOH) and O2-bubbled) at 37° C. The solution was then replaced by a similar medium containing 1.3 mg·ml^−1 of collagenase of type IV (Worthington, Freehold, N.J., USA) and perfused during 20-30 min. The heart was then perfused with the initial solution containing 2,3-butanedione monoxime as inhibitor of the muscular contraction (15 mM BDM). The ventricles were then delicately separated and, by mechanic stirring, the cardiomyocytes were liberated in the medium. The dissociated cells were washed in the same solution wherein increased concentrations of CaCl2 were added (0.3, 1, 1.8 mM). The cells of the sub-epicardial layer (EPI) were separated from the sub-endocardial layer (ENDO) by simple manual dissection.\nThe potentials of action (PA) and ionic currents were measured by the patch-clamp technique in whole cell configuration using an amplifier RK 400 (Biologic, Claix France) interfaced by a analogical/numerical converter DIGIDATA 1200 (Axon Instrument, Sunnyvale, Calif., USA) controlled by a PC. The acquisition and analysis of the data were realized with pCLAMP program (Axon Instrument, Sunnyvale, Calif., USA). The sampling frequency was of 10 KHz and the signals filtrated at 3 KHz. Pipettes comprised between 1 and 1.5 MΩ were used to ensure a good quality of voltage. For the measure of the potentials of action, the pipettes were filled with an internal solution (in mM: 130 KCl, 25 HEPES, 3 MgATP, 0.4 NaGTP, and 0.5 EGTA; the pH was adjusted at 7.2 with KOH). The external medium was composed of (in mM): 135 NaCl, 1 MgCl2, 4 KCl, 11 glucose, 2 HEPES, and 1.8 CaCl2; the pH was adjusted to 7.2. with NaOH.\nThe PA were started by injections of current of 0.2 ms at an intensity slightly higher than the supraliminal intensity threshold. The transitory potassium current coming out (Ito) was measured with the same internal and external solution (10 μM of tetrodotoxine (TTX) and 2 mM of cobalt chloride were added to the external medium to become independent from the […] and calcic currents, respectively. Ito was measured from depolarizing pulses.\nThe patch-clamp electrophysiological technique enables the membrane capacity (which reflects the cellular size) to be measured (this capacity reflects the cellular size). The results obtained with the above animals groups confirm the hypertrophy induced by the myocardial ischemia."}, "[5]": {"tested_on": "rats with permanent ligature of the left coronary artery (PMI)", "assay": "Survival of animals after chronic ischemia (PMI)", "format": "in vivo, rat", "details": "intraperitoneal injection 5-15 min before occlusion", "experimental": "The analyses were performed on 2 myocardial ischemia models: a chronic ischemia model and an acute ischemia model, followed by myocardial reperfusion after 30 min of occlusion.\nSaid models were realized with Wistar male rats (180-220 g). The coronary artery was ligatured according to Pfeffer et al protocol.\nBriefly, the rats were anaesthetized by intraperitoneal administration of a mixture of Ketamine (150 mg/kg) and Xylazine (15 mg/kg), then intubated and mechanically ventilated. The animals were submitted to a left and median thoracotomy. An occlusion of the coronary artery was done with a silk wire (size: 7.0) at the more proximal point and below the auricle.\nIn the case of chronic ischemia, the ligature was maintained and the rib cage of the animal reclosed (PMI model for post myocardial infarction).\nThe effect of the blocking of the caspase activity by Q-VD-OPH or by D1 on animals survival […] after infarction are given on FIG. 3. (A) over a period of 140 days; (B) the injection of the inhibitors or vehicle (DMSO) was carried out by intraperitoneal route 5-15 min before the occlusion of the coronary artery.\nThe animals having undergone a permanent ligature of the left coronary artery (PMI) were maintained alive during 4-5 months before performing the in vivo and ex vivo functional exploration. The death of the animals during this period was followed up."}}, "note": "“Also recorded” adds a separate entry of the source. Peptide text beside a SMILES is read from it. * marks the point of attachment. X1 = COC(=O)CC(N*)C(=O)COc1c(F)cccc1F; Quinaldoyl = O=C(c1ccc2ccccc2n1)*"}
{"compound": "COC(=O)CC(NC(=O)[C@H](C)NC(=O)[C@@H](NC(=O)[C@H](CC(=O)OC)NC(=O)[C@@H](NC(=O)c1ccc2ccccc2n1)C(C)C)C(C)C)C(=O)COc1c(F)cccc1F", "note": "(stereo partly drawn) [D1, (3S,6S,9S,12S)-methyl 15-(2-(2,6-difluorophenoxy)acetyl)-3,9-diisopropyl-6-(2-methoxy-2-oxoethyl)-12-methyl-1,4,7,10,13-pentaoxo-1-(quinolin-2-yl)-2,5,8,11,14-pentaazaheptadecan-17-oate] (Quinaldoyl-VD(OMe)VA-X1)", "values": [{"measurement": "caspase-2 activity", "setting": "caspase-2 [1]", "value": "inhibited"}, {"measurement": "caspase-2 basal activity", "setting": "caspase-2 [1]; right ventricular (RV)", "value": "weak inhibition"}, {"measurement": "caspase-2 activity", "setting": "caspase-2 [2]", "value": "normalization of the activity; also recorded: specifically inhibits"}, {"measurement": "heart size (cardiac hypertrophy)", "setting": "[3]", "value": "prevents cardiac hypertrophy"}, {"measurement": "density of transitory current coming out (Ito)", "setting": "[4]", "value": "very preserved; also recorded: significantly restored"}, {"measurement": "membrane capacity (cellular size; hypertrophy induced by myocardial ischemia)", "setting": "[4]; pre-treatment", "value": "highly prevented"}, {"measurement": "potential of action (PA) duration remodeling, transmural EPI/ENDO gradient", "setting": "[4]; pre-treatment, sub-epicardial and sub-endocardial cardiomyocytes", "value": "total absence of PA remodeling"}]}
{"compound": "CC(C)[C@H](NC(=O)c1ccc2ccccc2n1)C(=O)N[C@@H](CC(=O)O)C(=O)COc1c(F)cccc1F", "note": "[Q-VD-OPH]", "values": [{"measurement": "caspase-2 activity", "setting": "caspase-2 [1]", "value": "inhibited"}, {"measurement": "caspase-2 activity", "setting": "caspase-2 [2]", "value": "inhibits the activity of both caspases"}, {"measurement": "caspase-2 activity", "setting": "caspase-2 [2]; listed as QVDOPH", "value": "normalization of the activity"}, {"measurement": "animal survival over about 140 days post-infarctus", "setting": "[5]", "value": "survival curve superimposes on the one of the PMI group"}, {"measurement": "density of transitory current coming out (Ito)", "setting": "[4]", "value": "do not present any improvement; also recorded: no effect"}, {"measurement": "membrane capacity (cellular size; hypertrophy induced by myocardial ischemia)", "setting": "[4]; pre-treatment", "value": "has not effect"}]}
